Converted amounts (≈) assume the structure as drawn.

In the assay the test system is S. pneumoniae ATCC 49619. The assay can be described thus: Minimal inhibitory concentration (MIC) by broth microdilution (CLSI M7-A7). The format is cell-based, Streptococcus pneumoniae. The following applies: Streptococcus pneumoniae, ATCC49619; cation-adjusted Mueller Hinton Broth supplemented with 3% (v/v) lysed horse blood; microdilution method. Put shortly: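 Broth microdilution per CLSI M7-A7 in cation-adjusted Mueller-Hinton broth with 3% (v/v) lysed horse blood for S. pneumoniae. MIC in mg/l.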
Background: In broth dilution the organism is exposed to a series of concentrations in liquid medium.
As a reminder, the MIC is the smallest concentration in the dilution series that meets the test's criterion for growth inhibition. Regarding `C#CCOC(=O)NCc1ccc(-c2ccnc(N)c2)c2cc(NC(=O)NCC)ncc12.Cl` [Example 144, [5-(2-amino-pyridin-4-yl)-3-(3-ethyl-ureido)-isoquinolin-8-ylmethyl]-carbamic acid prop-2-ynyl ester hydrochloride], the MIC came out at 0.5 µg/mL. To `CCNC(=O)Nc1cc2c(-c3ccncc3)ccc(CNC(=O)CCCN3CCOCC3)c2cn1` [Example 147, N-[3-(3-ethyl-ureido)-5-pyridin-4-yl-isoquinolin-8-ylmethyl]-4-morpholin-4-yl-butyramide] belongs 4 µg/mL (≈ 8.39 µM). The same measure for `CCNC(=O)Nc1cc2c(Cl)ccc(CNC(=O)OCCCN3CCOCC3)c2cn1` [Example 148, [5-chloro-3-(3-ethyl-ureido)-isoquinolin-8-ylmethyl]-carbamic acid 3-morpholin-4-yl-propyl ester]: 4 µg/mL (≈ 8.89 µM); for `CCNC(=O)Nc1cc2c(F)ccc(CNC(=O)OCCCN3CCOCC3)c2cn1` [Example 149, [3-(3-ethyl-ureido)-5-fluoro-isoquinolin-8-ylmethyl]-carbamic acid 3-morpholin-4-yl-propyl ester]: 4 µg/mL (≈ 9.23 µM); for `C#CCOC(=O)NCc1ccc(F)c2cc(NC(=O)NCC)ncc12` [Example 150, [3-(3-ethyl-ureido)-5-fluoro-isoquinolin-8-ylmethyl]-carbamic acid prop-2-ynyl ester]: 1 µg/mL (≈ 2.9 µM). Take `CCNC(=O)Nc1cc2c(F)ccc(CNC(=O)OCCOC)c2cn1` [Example 151, [3-(3-ethyl-ureido)-5-fluoro-isoquinolin-8-ylmethyl]-carbamic acid 2-methoxy-ethyl ester]: it took 2 µg/mL (≈ 5.49 µM) to inhibit growth (MIC). For the compound `CCNC(=O)Nc1cc2c(-c3ccncc3)ccc(CNC(=O)OCCc3cnn[nH]3)c2cn1` [Example 152, [3-(3-ethyl-ureido)-5-pyridin-4-yl-isoquinolin-8-ylmethyl]-carbamic acid 2-(3H-[1,2,3]triazol-4-yl)-ethyl ester], inhibition of growth (MIC) required 1 µg/mL (≈ 2.17 µM). The same measure for `CCNC(=O)Nc1cc2c(-c3ccnc(C)c3)ccc(CNC(C)=O)c2cn1` [Example 153, N-[3-(3-ethyl-ureido)-5-(2-methyl-pyridin-4-yl)-isoquinolin-8-ylmethyl]-acetamide]: 1 µg/mL (≈ 2.65 µM).

As to `CCNC(=O)Nc1cc2c(-c3ccnc(C)c3)ccc(CNC(=O)C3CC3)c2cn1` [Example 154, cyclopropanecarboxylic acid [3-(3-ethyl-ureido)-5-(2-methyl-pyridin-4-yl)-isoquinolin-8-ylmethyl]-amide], inhibition of growth (MIC) required 0.5 µg/mL (≈ 1.24 µM).

Regarding `C#CC(=O)NCc1ccc(-c2ccnc(C)c2)c2cc(NC(=O)NCC)ncc12` [Example 155, propynoic acid [3-(3-ethyl-ureido)-5-(2-methyl-pyridin-4-yl)-isoquinolin-8-ylmethyl]-amide], the minimal inhibitory concentration (MIC) came out at 0.5 µg/mL (≈ 1.29 µM).

The compound `CCNC(=O)Nc1cc2c(-c3ccnc(C)c3)ccc(CNC(=O)c3ncc[nH]3)c2cn1` [Example 156, 1H-imidazole-2-carboxylic acid [3-(3-ethyl-ureido)-5-(2-methyl-pyridin-4-yl)-isoquinolin-8-ylmethyl]-amide] gave an MIC of 0.5 µg/mL (≈ 1.16 µM). `CCNC(=O)Nc1cc2c(-c3ccnc(C)c3)ccc(CNC(=O)CCOC)c2cn1` [Example 157, N-[3-(3-ethyl-ureido)-5-(2-methyl-pyridin-4-yl)-isoquinolin-8-ylmethyl]-3-methoxy-propionamide] showed an MIC of 1 µg/mL (≈ 2.37 µM). To `C#CCOC(=O)NCc1ccc(-c2ccnc(C)c2)c2cc(NC(=O)NCC)ncc12` [Example 158, [3-(3-ethyl-ureido)-5-(2-methyl-pyridin-4-yl)-isoquinolin-8-ylmethyl]-carbamic acid prop-2-ynyl ester] belongs 0.5 µg/mL (≈ 1.2 µM). To `CCNC(=O)Nc1cc2c(Cl)ccc(CNC(=O)OC)c2cn1` [Example 159, [5-chloro-3-(3-ethyl-ureido)-isoquinolin-8-ylmethyl]-carbamic acid methyl ester] belongs 1 µg/mL (≈ 2.97 µM); to `CCNC(=O)Nc1cc2c(-c3ccnc(C4CC4)c3)ccc(CNC(=O)OC)c2cn1` [Example 160, [5-(2-cyclopropyl-pyridin-4-yl)-3-(3-ethyl-ureido)-isoquinolin-8-ylmethyl]-carbamic acid methyl ester], 2 µg/mL (≈ 4.77 µM). Take `CCNC(=O)Nc1cc2c(-c3ccnc(F)c3)ccc(CNC(=O)OC)c2cn1` [Example 161, [3-(3-ethyl-ureido)-5-(2-fluoro-pyridin-4-yl)-isoquinolin-8-ylmethyl]-carbamic acid methyl ester]: the lowest concentration to inhibit growth (MIC) was 0.5 µg/mL (≈ 1.26 µM). The same measure for `CCNC(=O)Nc1cc2c(-c3ccnc(OC)c3)ccc(CNC(=O)OC)c2cn1` [Example 162, [3-(3-ethyl-ureido)-5-(2-methoxy-pyridin-4-yl)-isoquinolin-8-ylmethyl]-carbamic acid methyl ester]: 1 µg/mL (≈ 2.44 µM); for `CCNC(=O)Nc1cc2c(-c3ccnc(N)c3)ccc(CNC(=O)OC)c2cn1` [Example 163, [5-(2-amino-pyridin-4-yl)-3-(3-ethyl-ureido)-isoquinolin-8-ylmethyl]-carbamic acid methyl ester]: 0.5 µg/mL (≈ 1.27 µM). Turning to `CCNC(=O)Nc1cc2c(-c3cc(C)nc(C)c3)ccc(CNC(=O)OC)c2cn1` [Example 164, [5-(2,6-dimethyl-pyridin-4-yl)-3-(3-ethyl-ureido)-isoquinolin-8-ylmethyl]-carbamic acid methyl ester], the MIC was determined as 1 µg/mL (≈ 2.45 µM). As to `CCNC(=O)Nc1cc2c(-c3ccnc(C(F)(F)F)c3)ccc(CNC(=O)OC)c2cn1` [Example 165, [3-(3-ethyl-ureido)-5-(2-trifluoromethyl-pyridin-4-yl)-isoquinolin-8-ylmethyl]-carbamic acid methyl ester], the MIC is 4 µg/mL (≈ 8.94 µM). The compound `CCNC(=O)Nc1cc2c(-c3ccnc(OCC)c3)ccc(CNC(=O)OC)c2cn1` [Example 166, [5-(2-ethoxy-pyridin-4-yl)-3-(3-ethyl-ureido)-isoquinolin-8-ylmethyl]-carbamic acid methyl ester] came in with a minimum inhibitory concentration (MIC) of 2 µg/mL (≈ 4.72 µM). `CCNC(=O)Nc1cc2c(-c3ccnc(OC(C)(C)C)c3)ccc(CNC(=O)OC)c2cn1` [Example 167, [5-(2-tert-butoxy-pyridin-4-yl)-3-(3-ethyl-ureido)-isoquinolin-8-ylmethyl]-carbamic acid methyl ester]: the minimal inhibitory concentration (MIC) is 4 µg/mL (≈ 8.86 µM).

The compound `CCNC(=O)Nc1cc2c(-c3ccnc(O)c3)ccc(CNC(=O)OC)c2cn1` [Example 168, [3-(3-ethyl-ureido)-5-(2-hydroxy-pyridin-4-yl)-isoquinolin-8-ylmethyl]-carbamic acid methyl ester] had an MIC of 8 µg/mL (≈ 20.2 µM). The same measure for `CCNC(=O)Nc1cc2c(-c3ccnc(N4CCOCC4)c3)ccc(CNC(=O)OC)c2cn1` [Example 169, [3-(3-ethyl-ureido)-5-(2-morpholin-4-yl-pyridin-4-yl)-isoquinolin-8-ylmethyl]-carbamic acid methyl ester]: 4 µg/mL (≈ 8.61 µM); for `CCNC(=O)Nc1cc2c(-c3ccnc(CC)c3)ccc(CNC(=O)OC)c2cn1` [Example 170, [5-(2-ethyl-pyridin-4-yl)-3-(3-ethyl-ureido)-isoquinolin-8-ylmethyl]-carbamic acid methyl ester]: 1 µg/mL (≈ 2.45 µM). To `CCNC(=O)Nc1cc2c(-c3ccnc(N4CCCC4)c3)ccc(CNC(=O)OC)c2cn1` [Example 171, [3-(3-ethyl-ureido)-5-(2-pyrrolidin-1-yl-pyridin-4-yl)-isoquinolin-8-ylmethyl]-carbamic acid methyl ester] belongs 4 µg/mL (≈ 8.92 µM).

(Values after patent publication US8889676B2, “3-ureidoisoquinolin-8-yl derivatives” (Actelion Pharmaceuticals Ltd., priority 2011, dated 2014).)
